Source: publication PMC12040169 (PLOS Biology, 2025)

Assay: in vitro
Conditions: human, hela cells, % viability

SMILES | viability at 28.5 h, 10 µM [%] | viability at 28.5 h, 10 µM (bulk resorufin, single well) [%]
COc1ccc(C(=O)N2CCC3(CCCN(C(=O)c4c(F)cccc4F)C3)C2)cc1OC (centres unmarked) [CBK131669] | 94.1 | –
CCCN1CCC(NC(=O)c2cccc(S(N)(=O)=O)c2)CC1 [CBK305956] | 90.6 | –
Fc1ccc(-n2cc(-c3cccnc3)nn2)cc1F [CBK113055] | 89.3 | –
CC(C)(O)C1CCCN(C(=O)c2cc(COc3cccc(F)c3)[nH]n2)C1 (centres unmarked) [CBK306653] | 99.9 | –
CC(=O)N1CCN(c2cc(-c3noc([C@@H]4CCCN4C4CCOCC4)n3)ccn2)CC1 [CBK288879] | 88 | –
Cc1nn(C)cc1-c1cncn1CCN(C)C1CCCC1 [CBK281780] | 95.8 | –
CCOC(=O)N1CCC(NC(=O)N(CCCN(C)C)Cc2ccc3c(c2)OCO3)CC1 [CBK159231] | 91 | –
CC(=O)Nc1cccc(Oc2nccnc2-c2cc3ccccc3s2)c1 [CBK106784] | 101 | –
COc1ccc(C(=O)N2CCC3(CCN(Cc4c(F)cccc4F)C3)C2)cc1OC (centres unmarked) [CBK132152] | 92.8 | –
O=C(NCC1COc2ccccc2O1)c1cc(-c2ccc(Cl)cc2)cnc1N1CCOCC1 (centres unmarked) [CBK076286] | 94.9 | –
O=C1CCC(=O)N1CCOc1nccnc1OC1CCN(Cc2ccc(Cl)c(Cl)c2)CC1 [CBK084335] | 96.2 | –
Cc1ccc(-n2cccn2)cc1S(=O)(=O)N1CCNCC1C (centres unmarked) [CBK307344] | 85.1 | –
OCc1ccccc1-c1cncc(Nc2cccc(Cl)c2)n1 [CBK065400] | 102 | –
C[C@@H](Cn1nc2c(cc1=O)CCCC2)NC(=O)Cc1ccc(F)cc1 [CBK284526] | 100 | –
COc1ccc(C(C)C)cc1-c1cnc2cccnc2c1N [CBK081211] | 105 | –
N#Cc1c(C(F)(F)F)cc(-c2ccco2)nc1SCc1ccccn1 [CBK267450] | 88.5 | –
O=C(CN1CCCCCC1)N1CCCC1c1n[nH]cc1-c1cccc(Cl)c1 (centres unmarked) [CBK283084] | 94.7 | –
CCc1nccn1CCC(=O)NC1CCCN(Cc2ccccc2F)C1 (centres unmarked) [CBK306652] | 78.9 | –
CC(=O)Nc1cccc(Oc2nccnc2/C=C/c2ccccc2)c1 [CBK106881] | 91.6 | –
CCc1nc(CN(C)C2CCN(CC(=O)NCc3ccco3)C2)no1 (centres unmarked) [CBK305328] | 111 | –
Cc1cccc(C(=O)NC(CC(C)C)c2nnc3n2CCNCC3)c1O (centres unmarked) [CBK307191] | 99.6 | –
C=CCNC(=O)N1CC[C@H]2CC(=O)N(Cc3ccc(OC)cc3)CC[C@H]2C1 [CBK288790] | 86.9 | –
Cc1cc2c(cc1C)C(=O)CC1(CCN(C(=O)c3ccco3)CC1)O2 [CBK282819] | 96 | –

SMILES | viability at 28.5 h, 10 µM [%] | viability at 28.5 h, 10 µM (bulk resorufin, single well) [%]
Cc1cc(C)n(CCC(=O)N2CCCC2c2nc3ccccc3[nH]2)n1 (centres unmarked) [CBK283664] | 106 | –
CCC1CN(c2cc(CO)c(F)cn2)CC2(CCOC2)O1 (centres unmarked) [CBK304757] | 92.9 | –
c1cnc2cc(Oc3ccc4nccnc4c3)ccc2n1 [CBK267266] | 99.4 | –
CC(=O)Nc1ccc(CN[C@@H]2CCC[C@H]2Cc2cc(C)no2)cc1 [CBK285459] | 102 | –
O=C(O)CCCC(=O)Nc1ccc(C(=O)O)cc1 [CBK261534] | 86.5 | –
CN(C)c1ccc(CCNS(=O)(=O)c2ccc3[nH]c(=O)[nH]c(=O)c3c2)cc1 [CBK285938] | 84.8 | –
Fc1cccc(N2CCN(Cc3ccccc3)CC2)n1 [CBK000144] | 102 | –
O=C1CSC2(C(=O)Nc3ccccc32)N1c1ccc([N+](=O)[O-])cc1 (centres unmarked) [CBK026035] | 93.5 | –
CC(c1ccncc1)N1Cc2cccc(C(=O)O)c2C1=O (centres unmarked) [CBK291137] | 97.4 | –
COc1cc(/C=C2/NC(=O)N(c3ccccc3)C2=O)ccc1OCc1ccc(C(=O)O)cc1 [CBK265139] | 84.6 | –
CC(c1ccccc1)C(CC(=O)O)C(=O)NCc1ccccc1 (centres unmarked) [CBK286830] | 101 | –
C=CCc1cc(/C=C2\C(=O)NC(=O)N(c3ccc4c(c3)OCO4)C2=O)cc(OC)c1OCC(=O)O [CBK264025] | – | 98.5
CCc1ocnc1C(=O)NC1CCCN(Cc2ccccc2F)C1 (centres unmarked) [CBK306924] | 104 | –
COc1cc(C(=O)N2CCCC3(CCN(C(=O)c4cc(F)c(F)cc4F)C3)C2)cc(OC)c1OC (centres unmarked) [CBK131563] | 106 | –
O=C(O)C1CCC(CNc2ccc([N+](=O)[O-])cn2)CC1 (centres unmarked) [CBK286626] | 81.2 | –
Cc1cc(C23CC4CC(CC(C(=O)O)(C4)C2)C3)c(C)cc1C12CC3CC(CC(C(=O)O)(C3)C1)C2 [CBK261734] | 112 | –
CCN1CCN(C(=O)CN(CCc2ccccc2)S(C)(=O)=O)CC1 [CBK266666] | 91.8 | –
COc1cc(C(=O)N2CCC3(CC2)CC(=O)c2cc(C)c(C)cc2O3)ccc1C [CBK164202] | 105 | –
CC(C)CNc1cc(Cl)c(S(=O)(=O)NCC(C)C)cc1C(=O)O [CBK263405] | 93.5 | –
CCc1onc(C)c1C(=O)NC(Cc1ccsc1)c1nccs1 (centres unmarked) [CBK285142] | 94 | –
OCCn1ncc2c(SC3CCCCC3)ncnc21 [CBK269358] | 87.8 | –
OCc1cccc(-c2cncc(Nc3ccccc3)n2)c1 [CBK065576] | 97.4 | –
Cc1cccc(OCC2CCCN(C(=O)C3(Cn4cccn4)CC3)C2)c1 (centres unmarked) [CBK306578] | 102 | –

SMILES | viability at 28.5 h, 10 µM [%] | viability at 28.5 h, 10 µM (bulk resorufin, single well) [%]
OC1(c2ccc(F)cc2)CC2CCC(C1)N2CC1=CCCOC1 (centres unmarked) [CBK282942] | 106 | –
Cc1ccc2[nH]c(Cc3ccc(NC(=O)c4nc5ccccc5n(C)c4=O)cc3)nc2c1 [CBK285802] | 83.8 | –
CC(C)C(=O)N1CCC(Cn2nc(-c3ccccc3)ccc2=O)CC1 [CBK284114] | 83.1 | –
Cn1c(C(=O)NC2CCOC(C)(C)C2)cc2ccccc21 (centres unmarked) [CBK304344] | 91.7 | –
NS(=O)(=O)c1ccc(CCNC(=O)c2ccc3c(c2)OCCO3)cc1 [CBK268128] | 104 | –
O=C(CN(c1cccc(Cl)c1)S(=O)(=O)c1ccc(Cl)cc1)NCc1ccco1 [CBK265356] | 106 | –
OCCNc1nc(-c2ccccc2)cn2ccnc12 [CBK066379] | 97.6 | –
C/C(=C/C(=O)NCc1ccc(Cl)cc1)C(=O)O [CBK286954] | 105 | –
COc1ccc(CCNC(=O)CCn2cncn2)cc1 [CBK305881] | 105 | –
Cc1cccc(C2(O)CCN(C(=O)c3cc(C(C)C)nn3C)CC2)c1 [CBK282163] | 87.5 | –
O=C(O)Cn1c2ccccc2c2cc([N+](=O)[O-])ccc21 [CBK261732] | 82.6 | –
COC(=O)c1c(NC(=O)COc2ccccc2Cl)sc2c1CCC(c1ccccc1)C2 (centres unmarked) [CBK265456] | 90.3 | –
OCCNc1ncnc2ccc(Br)cc12 [CBK073217] | 93.9 | –
CC(CN(C)C(=O)Cn1cccc(C(=O)NC2CCCCC2)c1=O)c1ccccc1 (centres unmarked) [CBK286066] | 92.5 | –
O=C(NCCCc1nc2ccccc2[nH]1)c1ccccc1 [CBK268429] | 96.9 | –
CC(C)(C)NCC(O)COc1cccc2c1C[C@H](O)[C@H](O)C2 (some centres unmarked) [CBK011678] | 102 | –
CN1CCc2c1nc1ccccc1c2NC(=O)CN1CCCCCC1 [CBK278298G] | 90.6 | –
CC1CCC(C(C)C)C(OC(=O)C(C)O)C1 (centres unmarked) [CBK067073] | 81.6 | –
O=C(Cn1c(-c2ccc(F)cc2)cc2cccnc21)N1CCOCC1 [CBK285383] | 94.8 | –
Cc1ccc(CCSCC(=O)O)cn1 [CBK261072] | 95.3 | –
Cc1cnn(-c2cc(Oc3ccccc3)ncn2)c1 [CBK287276] | 114 | –
COc1ccc(C(=O)C2=C(O)C(=O)N(Cc3cccnc3)C2c2ccc(OC)cc2OC)c(C)c1 (centres unmarked) [CBK264928] | 89.7 | –
Cc1cc(C)n2nc(CCCOC(=O)c3ccn(C(C)C)n3)nc2n1 [CBK305272] | 112 | –

SMILES | viability at 28.5 h, 10 µM [%] | viability at 28.5 h, 10 µM (bulk resorufin, single well) [%]
COc1ccc(Nc2cc(Cl)ccc2C(=O)NC(C)(C)CN2CCOCC2)cn1 [CBK107436] | 97.1 | –
CS(=O)(=O)NCC(=O)N1CCC2(CCCCOc3ccccc3C(=O)NCCNC2=O)CC1 [CBK292123] | 112 | –
NC(=O)c1ccccc1-c1cnc(N)c(-c2ccc(O)cc2)n1 [CBK115536] | 89.4 | –
COc1ccccc1OCc1ccc(Cl)s1 [CBK002782] | 82.7 | –
Oc1nc(O)c2c(n1)NC1(CCC1)[C@@H]1C[C@@H](O)[C@@H](O)[C@H]21 [CBK303249] | 91.4 | –
CCc1nc(CN2CCCC(NCc3cccc(C(N)=O)c3)C2)no1 (centres unmarked) [CBK306254] | 87.2 | –
CCN1CC(C(=O)N2CCN(C(=O)c3ccccc3F)CC2)CC1=O (centres unmarked) [CBK282937] | 92.3 | –
CCc1c(C)nc2ccccc2c1SCC(=O)O [CBK153279] | 83.9 | –
Cc1nn(Cc2ccc(F)cc2)c(C)c1NC(=O)c1cnn2c(C(F)(F)F)cc(-c3ccccc3)nc12 [CBK268231] | 96.7 | –
O=C(NCc1ccc(OC2CCNCC2)cc1)c1cccs1 [CBK036353T] | 89.8 | –
Cc1ccc(-c2csc3nc(SCC(=O)NCC4CCCO4)n(-c4ccccc4)c(=O)c23)cc1 (centres unmarked) [CBK265610] | 82.6 | –
Cc1nc(N2CCCCC2)ncc1C(=O)NCCSc1nncn1C [CBK306955] | 81.1 | –
COC(=O)c1cn([C@H]2CO[C@H]3[C@@H]2OC[C@@H]3NC(=O)NC2CCCCC2)nn1 [CBK289499] | 82.4 | –
O=C(CN1C(=O)c2ccccc2C1=O)Nc1cccc(-c2cnc3ccccc3n2)c1 [CBK268614] | 115 | –
O=C(c1ccccc1)N1CCC(c2nnc(-c3ccsc3)o2)CC1 [CBK283371] | 88.5 | –
CCCN1C(=O)N(CO)C2C1N(CO)C(=O)N2CCC (centres unmarked) [CBK263882] | 101 | –
CCCNc1nc(Cl)nc(NCc2cccnc2)n1 [CBK261995] | 89 | –
O=C(Nc1ccc2[nH]ccc2c1)N1CCCC(CO)C1 (centres unmarked) [CBK156044] | 86.8 | –
FC(F)(F)c1ccc(-c2nnc(C3CC3)o2)cc1 [CBK021992] | 86.7 | –
CN(C)c1ccc(Nc2nc(NCCO)c3ccccc3n2)cc1 [CBK268392C] | 87.6 | –
